Results reported in article PMC9356275, “A quantitative high-throughput screen identifies compounds that lower expression of the SCA2-and ALS-associated gene ATXN2” (The Journal of Biological Chemistry, 2022).
Like-named read-outs stand apart in the source and are kept apart here.

Experiments:
CMV-luc = test: Secondary assays: CMV-luc in SC cells, Bright-Glo; assay type: cell-based, human; settings: minimum CMV-luc signal in SC cells over 12 doses; summary data
Experimental: (§1) Compounds were plated at 2× concentrations in phenol red–free DMEM in 25 μl in 384-well plates with each compound dose plated in triplicate. An equal volume of S2, H2, or SC cells (24,000 cells/well) suspended in phenol red–free DMEM with 10% fetal bovine serum and 1× penicillin/streptomycin were added. Cells were grown 24 h and then assayed first by using the CellTiter-Fluor reagent (20 μl) followed by the addition of Bright-Glo (65 μl) luciferase assay, using a multimode plate reader (Beckman; DT880). Values were reported as the mean ± SD with n = 3. IC50s were determined by the Hill coefficient method using an online tool (https://www.aatbio.com/tools/ic50-calculator).

in vitro = settings: human
Experimental: (§2) The values for H2 and S2 were used as replicates to calculate IC50s and to assess cell viability.
as §1

ATXN2-luc [1] = test: Secondary assays: ATXN2-luc in S2 and H2 cells, 12 doses, Bright-Glo; assay type: cell-based, human; settings: summary data; for IC50: ATXN2-luc luciferase assays in H2 and S2 cells, 12 doses plus a zero dose, read-out: Mean IC50; for min ATXN2-luc (%): minimum ATXN2-luc signal over 12 doses, H2 and S2 cells
S2, H2 or SC cells = test: in vitro
Experimental: as §2, §1

ATXN2-luc [2] = test: MSSR pilot screen: ATXN2-luc luciferase assay (Bright-Glo) in H2 cells, single 10 μM dose; assay type: cell-based, human; settings: H2 cells, single dose (title: 10 μM compound), overnight
[3] = minimum viability, multiplexed CellTiter-Fluor, over 12 doses, summary data

| SMILES | IC50 (ATXN2-luc [1]; Homo sapiens) | min SC luc (%) (CMV-luc) | viability at 24 h (in vitro) | min ATXN2-luc (%) (ATXN2-luc [1]) | min viability (%) (S2, H2 or SC cells) | IC50 (ATXN2-luc [1]) | min viability (%) (S2, H2 or SC cells; [3]) | SD from mean (ATXN2-luc, Z-score) (ATXN2-luc [2]) |
| --- | --- | --- | --- | --- | --- | --- | --- | --- |
| NC(=O)Nc1cc(-c2cccc(F)c2)sc1C(=O)N[C@H]1CCCNC1 [NCGC00242481-02, AZD7762] | – | – | 78.1% | – | – | – | – | – |
| CC1(C)CC(=O)c2c(C(F)(F)F)nn(-c3ccc(C(N)=O)c(N[C@H]4CC[C@H](O)CC4)c3)c2C1 [NCGC00346633-01, SNX 2112] | – | 82.2819% | 83.3% | – | – | – | – | – |
| Cc1ccc(-c2ncn(-c3ccc(Nc4nccc(-c5cccc(N6CCOCC6)c5)n4)cc3)n2)cn1 [NCGC00263146-01] | – | 82.9006% | – | 15.6493% | 65.3662% | 1.3 µM | – | – |
| C[C@@H]1CCC/C=C\[C@H]2C[C@H](O)C[C@@H]2[C@H](O)/C=C\C(=O)O1 [NCGC00017254-02, (+)-Brefeldin A] | – | 84.381% | – | 44.7226% | – | 2.89 µM | 72.9816% | – |
| CN[C@@H]1CN(c2ccc3c(=O)c(C(=O)O)cn(-c4nccs4)c3n2)C[C@@H]1OC [NCGC00346437-01] | – | 64.0102% | – | 15.1045% | – | 0.488 µM | 71.6056% | – |
| CN(c1ncccc1CNc1nc(Nc2ccc3c(c2)CC(=O)N3)ncc1C(F)(F)F)S(C)(=O)=O [NCGC00242495-01, PF-00562271] | – | 98.3015% | – | 15.5052% | – | 2.32 µM | 64.5946% | – |
| O=c1[nH]c2ccc(Cl)cc2c(N[C@@H]2CN3CCC2CC3)c1-c1nc2ccccc2[nH]1 [NCGC00346626-01, CHIR-124] | – | 69.3978% | – | 17.9767% | – | 0.219 µM | 75.0552% | – |
| CC[C@@]1(O)C(=O)OCc2c1cc1n(c2=O)Cc2cc3ccccc3nc2-1 [Camptothecine (S+)] | 0.04 µM | 42.7084% | 92.1% | 14.3715% | – | – | – | -5.283 SD |
| CCc1c(O)cc(O)c(C(=O)c2ccc(OCCN3CCOCC3)c(OC)c2)c1CC(=O)N(CCOC)CCOC [NCGC00346685-01, KW-2478] | – | 105.888% | – | 23.9372% | 97.6731% | 0.587 µM | – | – |
| Cc1ccc2nc(NCCN)c3ncc(C)n3c2c1 [NCGC00165761-02] | – | 96.0167% | – | 20.5589% | 77.5673% | 4.05 µM | – | – |
| CCNC(=O)c1cc2c(-c3cc(OCCN4CCCC4)c(Cl)cc3Cl)nc(N)nc2s1 [NCGC00247879-01, NVP-BEP800] | – | 85.4541% | – | 22.6428% | 89.936% | 1.79 µM | – | – |
| C=CCNc1c(O)cc2c(O)c1C[C@@H](C)C[C@H](OC)[C@@H](O)[C@@H](C)C=C(C)[C@H](OC(N)=O)[C@@H](OC)C=CC=C(C)C(=O)N2 [NCGC00346438-01] | – | 94.9947% | – | 24.2069% | 91.4914% | 0.546 µM | – | – |
| Cc1cnc(NC(=O)CN2CCN(c3ccccn3)CC2)s1 [MLS000035284-02] | – | 4.094% | – | 38.5658% | – | 12.9 µM | 76.8459% | – |
| Cc1cccc(Nc2nc(N[C@@H]3CCCC[C@H]3N)ncc2C(N)=O)c1 [NCGC00253909-01] | – | 86.8204% | – | 64.2535% | 94.6197% | 25.4 µM | – | – |
| Nc1ncnc2c1c(-c1cnc3[nH]ccc3c1)nn2C1CCCC1 [NCGC00346619-01, PP121] | – | 78.0969% | – | 27.4759% | – | 4.16 µM | 50.3878% | – |
| Cn1cc(-c2cnn3c(N)c(Br)c([C@H]4CCCNC4)nc23)cn1 [NCGC00346653-01] | – | 91.5137% | – | 25.4941% | – | 0.388 µM | 87.0431% | – |
| O=C(O)c1ccc2c(c1)nc(Nc1cccc(Cl)c1)c1ccncc12 [NCGC00263192-02] | – | 93.7801% | – | 45.6416% | 77.6315% | 10.2 µM | – | – |
| C=CCNC1=C2C[C@@H](C)C[C@H](OC)[C@H](O)[C@@H](C)/C=C(\C)[C@H](OC(N)=O)[C@@H](OC)/C=C\C=C(/C)C(=O)NC(=CC1=O)C2=O [NCGC00163424-03, tanespimycin] | 0.442 µM | 96.2287% | 83.6% | 23.7455% | – | – | – | – |
| C[C@@]12OC(=O)[C@]1([C@@H](O)[C@@H]1C=CCCC1)NC(=O)[C@H]2CCCl [NCGC00344630-01] | – | 96.8804% | – | 16.5036% | – | 1.11 µM | 75.9573% | – |
| N[C@@H](Cc1ccc(N(CCCl)CCCl)cc1)C(=O)O [NCGC00090757-05, Melphalan] | – | 79.9664% | 89.3% | 44.8372% | – | – | – | – |
| CN(C)CCN1C(=O)c2cccc3cc(N)cc(c23)C1=O [NCGC00346513-01, amonafide] | 1.84 µM | 69.6561% | 68.2% | 21.7231% | – | – | – | – |
| C[C@@H](Oc1ccc2[nH]nc(C=Cc3cnn(CCO)c3)c2c1)c1c(Cl)cncc1Cl [NCGC00346459-01] | – | 64.272% | – | 15.2562% | – | 1.39 µM | 66.1226% | – |
| S=C(NCCCN1CCOCC1)N1CCN(c2nc(-c3ccccc3)cs2)CC1 [MLS000706289-02] | – | 79.3012% | – | 61.6491% | – | 6.85 µM | 89.1129% | – |
| Oc1ccc(-c2ccc(-c3cc(Nc4cccc(CNC5CC5)c4)n[nH]3)cc2)c(O)c1 [NCGC00346954-01] | – | 54.3112% | – | 20.2623% | 61.7259% | 0.545 µM | – | – |
| CCNC(=O)c1noc(-c2cc(C(C)C)c(O)cc2O)c1-c1ccc(CN2CCOCC2)cc1 [NCGC00247878-01] | – | 63.2542% | – | 17.8831% | – | 0.044 µM | 94.6315% | – |
| CC(C)c1cc(-c2n[nH]c(=O)n2-c2ccc3c(ccn3C)c2)c(O)cc1O [NCGC00346678-01] | – | 55.4123% | – | 17.7351% | – | 0.03 µM | 77.8152% | – |

Further lines, with some results ahead:

| IC50 (ATXN2-luc [1]; Homo sapiens) | SMILES | min SC luc (%) (CMV-luc) | viability at 24 h (in vitro) | min ATXN2-luc (%) (ATXN2-luc [1]) | min viability (%) (S2, H2 or SC cells) | IC50 (ATXN2-luc [1]) | min viability (%) (S2, H2 or SC cells; [3]) | SD from mean (ATXN2-luc, Z-score) (ATXN2-luc [2]) |
| --- | --- | --- | --- | --- | --- | --- | --- | --- |
| 3.73 µM | CNC(=O)c1cc(Oc2ccc(NC(=O)Nc3cc(C(C)(C)C)nn3-c3ccc4ncccc4c3)c(F)c2)ccn1 [NCGC00263172-01, DCC-2036] | 60.5803% | 56.6% | 27.0713% | – | – | – | – |
| 9.77 µM | COc1cc2ncn(-c3cc(OCc4ccccc4C(F)(F)F)c(C(N)=O)s3)c2cc1OC [NCGC00242217-04, GW843682X] | 87.9923% | 75.5% | 57.1311% | – | – | – | – |
| 21.1 µM | Cc1cc(Nc2cc(CN3CCOCC3)c3nc(C)c(Cc4ccc(Cl)cc4F)n3n2)n[nH]1 [NCGC00345461-02, LY2784544] | 67.1857% | 81.6% | 23.1503% | – | – | – | – |
| 0.436 µM | CNC(=O)c1nn(C)c2c1C(C)(C)Cc1cnc(Nc3ccc(N4CCN(C)CC4)cc3)nc1-2 [NCGC00346673-01, PHA-848125] | 96.2246% | 74.4% | 15.8759% | – | – | – | – |
| 0.166 µM | O=c1[nH]c(=O)n([C@H]2C[C@H](O)[C@@H](CO)O2)cc1F [NCGC00023722-07, Floxuridine] | 37.5061% | 97.9% | 25.6595% | – | – | – | – |
| 57.5 µM | O=C1NC(=O)/C(=C/c2ccc3nccc(-c4ccncc4)c3c2)S1 [NCGC00346509-01, GSK 1059615] | 85.5514% | 75.5% | 51.4419% | – | – | – | – |
| 0.343 µM | C=CCn1c(=O)c2cnc(Nc3ccc(N4CCN(C)CC4)cc3)nc2n1-c1cccc(C(C)(C)O)n1 [NCGC00263183-01, MK 1775] | 63.0447% | 77.9% | 21.7344% | – | – | – | – |
| 3.02 µM | S=C(NCc1ccc2c(c1)OCO2)N1CCN(c2ncnc3c2oc2ccccc23)CC1 [NCGC00263158-01, MP470] | 74.2577% | 87.7% | 55.0637% | – | – | – | – |
| 0.178 µM | CC(C)c1cc(C(=O)N2Cc3ccc(CN4CCN(C)CC4)cc3C2)c(O)cc1O [NCGC00346674-01, AT13387] | 71.1894% | 90.6% | 22.3111% | – | – | – | – |
| 0.162 µM | O=C(NC1CCNCC1)c1[nH]ncc1NC(=O)c1c(Cl)cccc1Cl [NCGC00263091-01, AT7519] | 103.668% | 50.3% | 14.5407% | – | – | – | – |
